PubChem BioAssay AID192 (DTP/NCI, 2004)
Several values for one entry are separate records, joined by “and”; a condition that tells them apart may be missing. Identical values can stand only once. Inconclusive results and toxic doses are left out. Rule for the calls: active = survival T/C of 150% or more; inactive = T/C below 125% in these data. Square brackets hold non-standard residues; d marks the D form. Peptide text beside a SMILES is read from it. ξ: configuration not given here. ξLac(3-iPr) = CC(C)CC(O)C(=O)O; NMeV = CN[CH](C(=O)O)C(C)C; NMeA = CN[CH](C)C(=O)O; βAla = NCCC(=O)O

Test system: BDF1 mice, B16 melanoma ip, median survival T/C
Test: NCI In Vivo Anticancer Drug Screen. Data for tumor model B16 Melanoma (intraperitoneal) in B6D2F1 (BDF1) mice
Conditions: endpoint: median survival time, higher = longer survival
Procedure: The antitumor activity of compounds was measured in mice bearing transplantable tumors. Survival or tumor size were measured and the results are expressed as the measurement made in the treated group (T) divided by the measurement made in the vehicle treated control group (C). The tumor model used in this assay is B16 Melanoma (intraperitoneal) in B6D2F1 (BDF1) mice

[1] = dose: 100.0 mg/kg/injection, schedule: Q01DX009 (ip), vehicle: Klucel (hydroxypropylcellulose) (HPC)
[2] = dose: 200.0 mg/kg/injection, schedule: Q01DX009 (ip), vehicle: Klucel (hydroxypropylcellulose) (HPC)
[3] = dose: 12.5 mg/kg/injection, schedule: Q01DX009 (ip), vehicle: Klucel (hydroxypropylcellulose) (HPC)
[4] = dose: 25.0 mg/kg/injection, schedule: Q01DX009 (ip), vehicle: Klucel (hydroxypropylcellulose) (HPC)
[5] = dose: 50.0 mg/kg/injection, schedule: Q01DX009 (ip), vehicle: Klucel (hydroxypropylcellulose) (HPC)
[6] = dose: 3.12 mg/kg/injection, schedule: Q01DX009 (ip), vehicle: Klucel (hydroxypropylcellulose) (HPC)
[7] = dose: 6.25 mg/kg/injection, schedule: Q01DX009 (ip), vehicle: Klucel (hydroxypropylcellulose) (HPC)

Measured: T/C

CCCCC[C@H](O)/C=C/[C@H]1[C@H](O)CC(=O)[C@@H]1C/C=C\CCCC(=O)O
inactive: dose: 0.75 mg/kg/injection, schedule: Q04DX002 (ip), vehicle: Klucel (hydroxypropylcellulose) (HPC) 108 % of control | dose: 1.5 mg/kg/injection, schedule: Q04DX002 (ip), vehicle: Klucel (hydroxypropylcellulose) (HPC) 97 % of control | dose: 3.0 mg/kg/injection, schedule: Q04DX002 (ip), vehicle: Klucel (hydroxypropylcellulose) (HPC) 96 % of control | dose: 6.0 mg/kg/injection, schedule: Q04DX002 (ip), vehicle: Klucel (hydroxypropylcellulose) (HPC) 92 % of control | dose: 12.5 mg/kg/injection, schedule: Q04DX002 (ip), vehicle: other 96 % of control | dose: 24.0 mg/kg/injection, schedule: Q04DX002 (ip), vehicle: Klucel (hydroxypropylcellulose) (HPC) 103 % of control | dose: 25.0 mg/kg/injection, schedule: Q04DX002 (ip), vehicle: other 91 % of control | dose: 100.0 mg/kg/injection, schedule: Q04DX002 (ip), vehicle: other 96 % of control | dose: 200.0 mg/kg/injection, schedule: Q04DX002 (ip), vehicle: other 96 % of control

O=C1C=CC(=O)C2=C1CCCC2
inactive: dose: 2.9 mg/kg/injection, schedule: Q01DX009 (ip), vehicle: saline with Tween-80 87 % of control | dose: 4.5 mg/kg/injection, schedule: Q01DX009 (ip), vehicle: saline with Tween-80 87 % of control

Cn1cnc2c1c(=O)[nH]c(=O)n2C
inactive: [1] 109 % of control | [2] 111 % of control | dose: 400.0 mg/kg/injection, schedule: Q01DX009 (ip), vehicle: Klucel (hydroxypropylcellulose) (HPC) 109 % of control

CCC(C)C1NC(=O)C2CCCN2C(=O)C(CC(C)C)OC(=O)CCNC(=O)C(C)N(C)C(=O)C(C(C)C)N(C)C1=O (stereo not given) (cyclo([ξLac(3-iPr)]PI[NMeV][NMeA][βAla]); configuration not given here)
inactive: dose: 1.25 mg/kg/injection, schedule: Q01DX009 (ip), vehicle: saline 112 % of control | dose: 2.5 mg/kg/injection, schedule: Q01DX009 (ip), vehicle: saline 111 % of control | dose: 5.0 mg/kg/injection, schedule: Q01DX009 (ip), vehicle: saline 105 % of control | dose: 10.0 mg/kg/injection, schedule: Q01DX009 (ip), vehicle: saline 107 % of control

CC(=N\O)/C(C)=N/O.CC(=N\O)/C(C)=N/O.[Fe].c1c[nH]cn1.c1c[nH]cn1
inactive: [1] 100 % of control | [2] 100 % of control

C1CC[N-]CC1.C1CC[N-]CC1.CS(C)=O.[Cl][Rh]([Cl])[Cl]
inactive: dose: 5.0 mg/kg/injection, schedule: Q01DX009 (ip), vehicle: saline with Tween-80 99 % of control | dose: 10.0 mg/kg/injection, schedule: Q01DX009 (ip), vehicle: saline with Tween-80 95 % of control

Nc1ccccc1N
inactive: [3] 96 % of control | [4] 98 % of control | dose: 25.0 mg/kg/injection, schedule: Q02DX009 (ip), vehicle: saline with Tween-80 106 % of control | [5] 98 % of control | [1] 102 % of control | dose: 100.0 mg/kg/injection, schedule: Q02DX009 (ip), vehicle: saline with Tween-80 100 % of control | dose: 200.0 mg/kg/injection, schedule: Q02DX009 (ip), vehicle: saline with Tween-80 100 % of control

Cc1ccc(NC(=O)Nc2ccccc2Cl)cc1
inactive: dose: 100.0 mg/kg/injection, schedule: Q01DX009 (ip), vehicle: gum acacia 89 % of control

CCC(=O)NC1=C(N2CC2C)C(=O)C(NC(=O)CC)=C(N2CC2C)C1=O (stereo not given)
inactive: dose: 0.39 mg/kg/injection, schedule: Q01DX009 (ip), vehicle: Klucel (hydroxypropylcellulose) (HPC) 119 % of control | dose: 0.78 mg/kg/injection, schedule: Q01DX009 (ip), vehicle: Klucel (hydroxypropylcellulose) (HPC) 95 % of control | dose: 1.56 mg/kg/injection, schedule: Q01DX009 (ip), vehicle: Klucel (hydroxypropylcellulose) (HPC) 111 % of control | [6] 102 % of control | [7] 123 % of control

C[C@]12C=CC(=O)C=C1CC[C@@H]1[C@@H]2[C@@H](O)C[C@@]2(C)[C@H]1CC[C@]2(O)C(=O)CO
inactive: dose: 10.0 mg/kg/injection, schedule: Q02DX009 (ip), vehicle: Klucel (hydroxypropylcellulose) (HPC) 91 % of control | dose: 20.0 mg/kg/injection, schedule: Q02DX009 (ip), vehicle: Klucel (hydroxypropylcellulose) (HPC) 100 % of control | dose: 40.0 mg/kg/injection, schedule: Q02DX009 (ip), vehicle: Klucel (hydroxypropylcellulose) (HPC) 96 % of control | dose: 80.0 mg/kg/injection, schedule: Q02DX009 (ip), vehicle: Klucel (hydroxypropylcellulose) (HPC) 103 % of control | dose: 160.0 mg/kg/injection, schedule: Q02DX009 (ip), vehicle: Klucel (hydroxypropylcellulose) (HPC) 109 % of control and 115 % of control | dose: 320.0 mg/kg/injection, schedule: Q02DX009 (ip), vehicle: Klucel (hydroxypropylcellulose) (HPC) 92 % of control

COc1ccc2c(c1)C13CCCCC1C(C2)N(CC1(c2ccccc2)CC1)CC3 (stereo not given)
inactive: dose: 4.1 mg/kg/injection, schedule: Q01DX009 (ip), vehicle: Klucel (hydroxypropylcellulose) (HPC) 93 % of control | [7] 93 % of control | dose: 9.3 mg/kg/injection, schedule: Q01DX009 (ip), vehicle: Klucel (hydroxypropylcellulose) (HPC) 93 % of control and 109 % of control | [3] 119 % of control | [4] 121 % of control | [5] 97 % of control

CC(=O)OC1C(=O)C(O)C(C)OC1O[C@@H]1C[C@@]2(C)[C@@H]3CC=C4[C@@H](C[C@H](O)C(=O)C4(C)C)[C@]3(C)C(=O)C[C@]2(C)[C@H]1[C@@](C)(O)C(=O)/C=C/C(C)(C)O (stereo not given in full)
inactive: dose: 1.0 mg/kg/injection, schedule: Q01DX009 (ip), vehicle: saline 92 % of control | dose: 2.0 mg/kg/injection, schedule: Q01DX009 (ip), vehicle: saline 92 % of control

Clc1ccc(NC2=NCCCS2)c2ccccc12
inactive: [4] 105 % of control | [5] 92 % of control | [1] 95 % of control

Cc1ccc(N=Nc2c(O)ccc3n[nH]nc23)cc1
inactive: [1] 96 % of control

O=S1(=O)CC(Cl)C(Cl)C1 (stereo not given)
inactive: [6] 91 % of control | [3] 96 % of control

CCCCOCCC1CCNCC1
inactive: dose: 12.5 mg/kg/injection, schedule: Q01DX009 (ip), vehicle: saline 116 % of control | dose: 25.0 mg/kg/injection, schedule: Q01DX009 (ip), vehicle: saline 106 % of control | dose: 50.0 mg/kg/injection, schedule: Q01DX009 (ip), vehicle: saline 110 % of control

CC(C)(C)c1cc([N+](=O)[O-])cc([N+](=O)[O-])c1O
inactive: dose: 1.56 mg/kg/injection, schedule: Q01DX009 (ip), vehicle: saline with Tween-80 99 % of control | dose: 3.13 mg/kg/injection, schedule: Q01DX009 (ip), vehicle: saline with Tween-80 96 % of control | dose: 6.25 mg/kg/injection, schedule: Q01DX009 (ip), vehicle: saline with Tween-80 93 % of control | dose: 12.5 mg/kg/injection, schedule: Q01DX009 (ip), vehicle: saline with Tween-80 89 % of control

FC(F)(F)c1ccc(Cl)c(NC2=NCCCS2)c1
inactive: [5] 96 % of control | [1] 89 % of control

Cc1ccc(NC(=O)c2cccc(C(=O)Nc3ccc(C)c(C)c3)c2)cc1C
inactive: dose: 100.0 mg/kg/injection, schedule: Q04DX003 (ip), vehicle: Klucel (hydroxypropylcellulose) (HPC) 97 % of control | dose: 200.0 mg/kg/injection, schedule: Q04DX003 (ip), vehicle: Klucel (hydroxypropylcellulose) (HPC) 90 % of control | dose: 400.0 mg/kg/injection, schedule: Q04DX003 (ip), vehicle: Klucel (hydroxypropylcellulose) (HPC) 93 % of control

CCN(C(=O)Nc1ccc(Cl)cc1)c1ccccc1C
inactive: dose: 100.0 mg/kg/injection, schedule: Q01DX009 (ip), vehicle: saline with Tween-80 97 % of control | dose: 200.0 mg/kg/injection, schedule: Q01DX009 (ip), vehicle: saline with Tween-80 102 % of control | dose: 400.0 mg/kg/injection, schedule: Q01DX009 (ip), vehicle: saline with Tween-80 97 % of control
